Measurements taken from patent publication US12173089B2, “Inhibition of pulmonary fibrosis with nutlin-3A and peptides” (BOARD OF REGENTS, THE UNIVERSITY OF TEXAS SYSTEM, priority 2013, dated 2024).

Columns and labels:
BLM-treated mice = assay: Established lung fibrosis in BLM-treated mice (CT scanning, lung function, trichrome staining, hydroxyproline, desmosine); format: in vivo; details: for established lung fibrosis: WT mice, results reported herein and elsewhere
Description: FIGS. 10A-10D. Nutlin-3a (NTL) inhibits lung fibrosis in BLM-treated mice. Mice were exposed to BLM for 14 d to induce lung fibrosis. Saline treated mice were used as fibrosis controls. After 14 d, mice exposed to BLM were injected IV with either vehicle or nutlin-3 a (10 mg/kg body weight) (Zhang F et al. Drug Metab Dispos 39: 15-21, 2011) to determine whether nutlin-3 a inhibited established lung fibrosis. On day 21 after BLM injury, mice underwent CT scanning to assess the extent of fibrosis (FIG. 10A). One representative example is shown (n=9). (FIG. 10B) Lung compliance and resistance were measured in the same mice using the Flexivent system to assess improvement in lung function after nutlin-3 a treatment (n=9). (FIG. 10C) Lung sections were subjected to trichrome staining to assess lung architecture and collagen deposition as an indication of lung fibrosis. (FIG. 10D) Whole lung homogenates were analyzed for total collagen (hydroxyproline) and desmosine content as an independent assessment of changes in ECM.
FIGS. 11A-11D. CSP-4 inhibits established lung fibrosis and improves lung function. Mice were exposed to BLM to induce pulmonary fibrosis. After 14 d, the mice were injected IV with either vehicle or 1.5 mg/kg body weight of CSP-4 or control peptide (“CP”) of scrambled sequence. On d 21 after BLM injury, mice underwent CT scanning examine CSP-4 inhibition of established lung fibrosis (FIG. 11A). One representative example is shown (n=9). (FIG. 11B): Lung volumes were measured in the same mice (n=9) using quantitative CT renditions. (FIG. 11C): Lung sections were subjected to trichrome and H&E staining (not shown) to assess collagen deposition as an indicator of lung fibrosis. (FIG. 11D) Analysis of whole lung homogenates for total hydroxyproline content.
Mice exposed to BLM (or saline in controls) for 14 d to induce lung fibrosis were injected IV with nutlin-3a (10 mg/kg body weight) (Zhang et al, supra) or a vehicle control to determine and the effect on established lung fibrosis was examined. Fibrosis was evaluated by CT scanning and lung function (compliance and resistance) were measured using the Flexivent system. Lung sections were subjected to trichrome staining and H & E staining (the latter not shown) to assess lung architecture and collagen deposition as an indication of fibrosis. Finally, whole lung homogenates were analyzed for total collagen (hydroxyproline) and desmosine content (Bhandary Y P et al, Am J Physiol: Lung Cell Mol Physiol 302:L463-73, 2012; Bhandary Y P et al, Am J Pathol, 183: 131-43 2013) as an independent assessment of the ECM. […] Oral administration of Nutlin-3a 14 days after BLM injury likewise inhibited pulmonary fibrosis in mice.
Mice were exposed to BLM to induce pulmonary fibrosis. After 14 d, the mice were injected IV with either vehicle or 1.5 mg/kg body weight of CSP-4 (SEQ ID NO: 1) or control peptide (scrambled sequence of same amino acids; CP, SEQ ID NO:5) at 1.5 mg/kg body weight or vehicle was injected IV into mice exposed to BLM 14 days earlier. One week later, mice were tested by CT scanning to evaluate lung fibrosis. Lung volume was measured in the same mice using quantitative CT renditions.

[1] = test system: fibroblasts isolated from the lungs of mice; assay: Western blotting and quantitative RT-PCR of fibroblasts isolated from lungs of treated BLM mice; format: in vivo; details: fibroblasts from BLM mice treated with nutlin-3a
Description: FIGS. 12A-12C. CSP-4 or nutlin-3a (NTL) inhibits proliferation of FL-fibroblasts. Mice were exposed to BLM for 14 d to induce significant lung fibrosis or to saline (fibrosis controls). 14 d later, mice exposed to BLM were treated with CSP-4 or CP, or nutlin-3a (see FIGS. 10A-10D/11A-11D). (FIG. 12A): Lung sections (d 21 after BLM injury) were subjected to immunohistochemistry (IHC) for Ki-67 to assess proliferation. One representative example is shown (n=9). Fibroblasts were isolated from the lungs of mice exposed to saline, BLM or BLM+nutlin-3a (as described in FIG. 11A) were tested for the changes in expression of col-I, p53 and downstream uPA and PAI-1 proteins by Western blotting (FIG. 12B):, and mRNA by quantitative RT-PCR (FIG. 12C).
Mice exposed to BLM 14 days earlier were treated with CSP-4 or its control (CP) or Nutlin-3a IV (as in Examples IX and X). Seven days later lung sections were obtained and subjected to IHC for Ki-67 to assess cell proliferation (see FIG. 12A). […] Fibroblasts isolated from the lungs of these animals (as described in Example X) were tested for the changes in expression of col-I, p53 and downstream uPA and PAI-1 proteins by Western blotting, and mRNA by quantitative RT-PCR (see FIGS. 12B-12C).

[2] = test system: LPS-stimulated neutrophils and macrophages; details: cited from earlier work
LPS-induced ALI = details: mice; cited from earlier work
FL-fibroblasts = assay: Deletional analysis of CSP: peptide fragments tested on FL-fibroblasts for changes in p53, uPA, PAI-1 and col-I; format: cell-based, human
Description: FIGS. 6A-6D. CSP (CSP4) augments p53 expression via induction of miR-34a in FL(IPF)-fibroblasts. (FIG. 6A) NL- and FL-fibroblasts (n=3) were treated with PBS, CSP-4 (CSP) or control peptide (CP). RNA was analyzed for miR-34a by real-time PCR. (FIG. 6B) FL-fibroblasts were treated with PBS or CSP or CP with or without miR-34a antisense (miR-34a-AS) or pre-miR-34a or control miRNA (Ctr-miR). Conditioned media (CM) were immunoblotted for PAI-1 and lysates (CL) for p53 and β-actin. (FIG. 6C) FL-fibroblasts were treated with PBS or CSP or CP in the presence or absence of miR-34a-AS, pre-miR-34a or Ctr-miR. RNA was analyzed for changes in miR-34a by real-time PCR. (FIG. 6D) A series of overlapping deletions were made in CSP and these peptides were used to treat FL-fibroblasts with. The peptide sequences were CSP (SEQ ID NO:2), CSP-2: DGIWKAS (SEQ ID NO:12), CSP-3: KYWFYR (SEQ ID NO:13), CSP-4 (SEQ ID NO:1), and CP (SEQ ID NO:5). Changes in p53, uPA, PAI-1 and col-I were later assessed to identify the minimum amino acids required for the CSP effects.
A series of overlapping deletions were made in CSP and these peptide fragments were tested on FL-fibroblasts for changes in p53, uPA, PAI-1 and col-I (FIG. 6D).

ATII cell = details: BLM- or cigarette smoke-induced; cited from earlier work

Row | Compound | effect on established lung fibrosis (CT, compliance and resistance, trichrome, hydroxyproline, desmosine) (BLM-treated mice; IV 10 mg/kg body weight 14 d after BLM, read on day 21) | established lung fibrosis (BLM-treated mice; IV or oral administration beginning 14 d after BLM) | pulmonary fibrosis (BLM-treated mice; oral administration 14 days after BLM injury) | PAI-1 protein and mRNA expression [1] | col-I protein and mRNA expression [1] | p53 protein [1] | uPA protein and mRNA expression [1] | NF-κB DNA-binding activity [2] | production of proinflammatory cytokines [2] | severity of LPS-induced ALI (LPS-induced ALI) | activity in deletional analysis of the CSP 20mer (changes in p53, uPA, PAI-1 and col-I) (FL-fibroblasts) | established lung fibrosis (BLM-treated mice; IP or IV administration beginning 14 d after BLM) | BLM-induced lung fibrosis (CT, lung volume, trichrome and H&E, hydroxyproline) (BLM-treated mice; IV 1.5 mg/kg body weight 14 d after BLM, read one week later) | ATII cell apoptosis (ATII cell) | ATII cell p53 expression (ATII cell)
1 | COc1ccc(C2=NC(c3ccc(Cl)cc3)C(c3ccc(Cl)cc3)N2C(=O)N2CCNC(=O)C2)c(OC(C)C)c1 (stereo not drawn) [nutlin-3a, 4-2-4,5-dihydro-1H-imidazole-1-piperazin-2-one] | beneficial effect | mitigates | inhibited | marked induction | significant suppressed | marked induction | significant suppressed | attenuated | attenuated | reduced |  |  |  |  | 
2 | FTTFTVT [CSP-4] |  |  |  |  |  |  |  |  |  |  | had the activity of the full length peptide | mitigates | inhibited | inhibited | inhibited
